# Source: article PMC9181014, “De Novo Development of Mitochondria-Targeted Molecular Probes Targeting Pink1” (International Journal of Molecular Sciences, 2022)
# Numbered stars: 1 amine (or outer) side, 2 acyl side, 3 side chain; on linkers, the order of the positions; unused ones are H or OH. Bridge positions count the residues as written; N and C are the ends. Ends that are not written are not given here. Peptide text beside a SMILES is read from it. Suc = O=C(CCC(=O)[*:2])[*:1]
# T1: Tribolium castaneum Pink1 (TcPink1) (Tribolium castaneum, UniProt D6WMX4 6-570)
# T1 construct: No cleavage of MBP is described; also called pMal4c Pink1 (Tribolium castaneum) DU34701; not shown: MBP (from the vector pMal4c)
# T1 sequence (looked up): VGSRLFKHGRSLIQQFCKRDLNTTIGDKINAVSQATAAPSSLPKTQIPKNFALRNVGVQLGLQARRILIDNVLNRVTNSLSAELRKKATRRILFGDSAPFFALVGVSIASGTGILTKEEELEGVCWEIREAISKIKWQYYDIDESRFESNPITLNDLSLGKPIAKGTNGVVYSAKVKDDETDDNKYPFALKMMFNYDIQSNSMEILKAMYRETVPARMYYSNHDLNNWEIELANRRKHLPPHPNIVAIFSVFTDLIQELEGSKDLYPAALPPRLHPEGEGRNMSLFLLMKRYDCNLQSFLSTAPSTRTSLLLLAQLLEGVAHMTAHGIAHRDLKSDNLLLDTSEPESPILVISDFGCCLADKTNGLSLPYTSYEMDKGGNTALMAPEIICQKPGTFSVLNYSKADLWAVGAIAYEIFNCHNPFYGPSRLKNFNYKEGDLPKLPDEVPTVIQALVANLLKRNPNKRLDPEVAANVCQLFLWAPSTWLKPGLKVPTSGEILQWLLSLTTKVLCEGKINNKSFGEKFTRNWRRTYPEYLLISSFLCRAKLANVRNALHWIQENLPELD
# B1: CVP-200, backbone cyclic peptide (n = 3, bridge size 10, ring size 42) (peptide)
# chain: GLQRMVLVDLKGGYGRKKRRQRRR-NH2
# modifications: also: backbone cyclic: spacer on N-terminal amine linked to side chain of added lysine, that lysine's position not given here, linker at N via dicarboxylic acid spacer (n = 3), other end not in the chain
# Columns and labels:
# [1] = target: T2, trypsin (Sus scrofa, UniProt P00761); assay: Stability of peptides under tryptic degradation, HPLC; assay type: in vitro ADME; settings: pig, trypsin from porcine pancreas, porcine pancreas trypsin (1 µL of 1 mg/mL), peptide 2 mg in 800 µL 50 mM Tris pH 8.0, 37 °C, RP-HPLC, 214 nm, relative to time zero, n = 3; for metabolised at 0.5 h, 2.5 mg/mL: 30 min, read-out: Degradation of the peptide by trypsin after 30 min
# T2 construct: purchased Sigma-Aldrich; host or cells: porcine pancreas
# T2 sequence (P00761 9-231): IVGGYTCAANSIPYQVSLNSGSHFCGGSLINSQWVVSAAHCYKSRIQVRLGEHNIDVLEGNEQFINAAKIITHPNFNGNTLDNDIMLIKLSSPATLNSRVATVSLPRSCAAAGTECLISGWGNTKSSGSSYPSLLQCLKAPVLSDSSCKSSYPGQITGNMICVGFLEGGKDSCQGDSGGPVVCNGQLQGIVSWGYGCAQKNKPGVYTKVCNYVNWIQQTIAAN
# Description: (§1) We tested the stability of the peptides using trypsin, an endopeptidase with specificity for cleaving the amide bond between a cationic amino acid and the next amino acid in the C-terminal direction, which is found in the digestive systems of many vertebrates, and it is commonly used as an important enzymatic reagent in biochemistry and biology.
# (§2) The stability of the peptides was measured independently under tryptic degradation at 37 °C (by trypsin degradation of the peptide) and was determined by HPLC analysis (for more experimental details, see “Materials and Methods”) (n = 3). The starting time point (0 min, 100%) represents the peptide at the beginning of each experiment. […] Separation was performed by HPLC in the presence of 0.1% trifluoroacetic acid and detected by absorbance at 214 nm. Peptide amounts were calculated relative to the quantities determined at time point zero.
# (§3) In brief: The stability studies of the peptides were performed by dissolving the peptides in Tris buffer and incubating them with trypsin solution at 37 °C using HPLC.
# (§4) Further details: Trypsin from porcine pancreas was purchased from Sigma-Aldrich (Saint Louis, MO, USA). Peptide (2 mg) was dissolved in Tris buffer (800 µL, 50 mM (pH 8.0)). The peptide solution was mixed with 1 μL of trypsin solution (1 mg/mL in 50 mM Tris buffer (pH 8.0)). The peptide was incubated at 37 °C and samples (90 μL) were taken at 0, 5, 30, 60, and 120 min. The samples were mixed with TFA/CH3CN/H2O (2%/5%/93%, 90 µL). The peptides were analyzed by analytical reverse-phase high-pressure liquid chromatography (RP-HPLC) 1260 Infinity II LC System from Agilent, (Santa Clara, CA, USA) using a Luna 5 μm C18(2) 100 Å (250 × 4.6 mm) column (Phenomenex, Torrance, CA, USA) at 1 mL/min. The solvent systems used were A (H2O with 0.1% TFA) and B (CH3CN with 0.1% TFA). A linear gradient of 5–50% B in 15 min was applied, and the detection was at 214 nm and 254 nm.
# [2] = tested on: T3, trypsin; assay: as above; assay type: in vitro ADME; settings: pig, trypsin from porcine pancreas; porcine pancreas trypsin (1 µL of 1 mg/mL); peptide 2 mg in 800 µL 50 mM Tris pH 8.0; 37 °C; 120 min; RP-HPLC, 214 nm; relative to time zero; n = 3; read-out: Degradation of the peptide by trypsin after 120 min
# T3 construct: purchased Sigma-Aldrich; host or cells: porcine pancreas
# Description: as §1, §2, §3, §4
# [3] = target: T4, TcPink1 (Tribolium castaneum, UniProt D6WMX4); assay: Peptide binding to immobilized protein in vitro, field-effect biosensing (FEB); settings: AGILE Dev Kit graphene biosensor chip, protein 500 nM immobilized by EDC/sulfo-NHS, analyte 50 µL in PBS pH 7.4, Hill fit, mean ± SEM, read-out: KD of the peptides binding to TcPink1
# T4 construct: host or cells: E. coli Rosetta (DE3)
# Description: In brief: Protein was immobilized/cross-linked into the carboxyl group present on the activated graphene biosensor chip. The analyte is applied in solution to the chip and when an interaction occurs, an alteration in the current (I) is measured and recorded in real-time throughout the experiment. The entire cycle of the experiment starts with calibration using PBS (pH 7.4) to record the baseline equilibration response. Followed by the association step by adding analyte (50 µL) at the desired concentrations in PBS (pH 7.4). After the experiment, data at the concentration points of the analytes were exported from 3 transistors, averaged, and any background drift recorded in PBS was subtracted.
# Binding data of the peptides to immobilized protein in vitro was gathered using an AGILE Dev Kit label-free binding assay (Cardea, San Diego, CA, USA). […] After a rinse in PBS, base-line current levels for the chip were recorded for at least 5 min. Next, the PBS was aspirated, and a droplet of the tested analyte (50 μL) was applied to the chip and the change in the sensor chip readout was recorded, after that the analyte was aspirated and the chip was rinsed with PBS. […] After data were gathered, the responses of the sensors on a single assay chip were averaged, and any background drift recorded in PBS was subtracted. […] The KD values were calculated by GraghPad Prism 9, statistical analysis software. […]
# [4] = target: T4, TcPink1; assay: Cross-linking coupled with mass spectrometry (CLMS), BS3 cross-linker; assay type: binding; settings: BS3 cross-link CVP198 to CVP198 (residue 11 to residue 11), self cross-link in the CVP198 + tcPINK1 sample
# Description: (§5) Here, two water-soluble cross-linkers were used for the CLMS: 4-(4,6-dimethoxy-1,3,5-triazin-2-yl)-4-methyl-morpholinium chloride (DMTMM), and bis(sulfosuccinimidyl)suberate (BS3). DMTMM is a hetero-bifunctional amine-to-carboxylic acid crosslinker, and BS3 is a homo-bifunctional amine-to-amine crosslinker, which reacts primarily with the ε-amino group of lysine residues in proteins.
# (§6) In brief: The recombinant protein and the peptide were incubated together with a crosslinker. The reaction was stopped with a quencher. The proteins were precipitated collected and trypsinased, the outcome was analysed by liquid chromatography mass spectrometry (LCMS).
# (§7) A mixture solution of purified protein and peptide was prepared in HEPES buffer (50 mM HEPES, 150 mM NaCl (pH 8.0)). Protein TcPink1’s final concentration was 10 μM and hPink1’s final concentration was 2 μM. The peptide was added at a 1:10 or 1:100 protein-to-peptide ratio, and the mixture incubated with agitation for 20 min at room temperature. For BS3 cross-linking, a solution of BS3 in DMSO (150 mM) was used, which was diluted with the proteins to a final BS3 concentration of 1 mM. The cross-linking reaction was incubated at room temperature for 30 min with agitation. The reaction was quenched by adding ammonium bicarbonate to a final concentration of 30 mM.
# [5] = target: T4, TcPink1; assay: Cross-linking coupled with mass spectrometry (CLMS), DMTMM cross-linker; assay type: binding; settings: DMTMM cross-link CVP198-CVP198 (both partners the peptide), in the CVP-198 + tcPINK1 sample
# Description: as §5, §6, §7
# [6] = target: T1, Tribolium castaneum Pink1 (TcPink1); assay: field-effect biosensing (FEB); TcPink1 (500 nM) covalently immobilised by EDC/sulfo-NHS on a graphene biosensor chip (AGILE Dev Kit, Cardea); peptides as analyte in PBS pH 7.4 at varying concentrations; Hill fit for KD; settings: both partners purified
Molecule,"metabolised at 0.5 h, 2.5 mg/mL [1] [%]","metabolised at 2 h, 2.5 mg/mL [2] [%]",Kd [3] [µM],"metabolised at 2 h, 2.5 mg/mL ([1]; 120 min, read-out: Degradation of the peptide by trypsin after 120 min) [%]",XL fragmentation score [4],XL fragmentation score [5],Kd [6] [µM]
CSCC[C@@H]1NC(=O)[C@H](CCCNC(=N)N)NC(=O)[C@H](CCC(N)=O)NC(=O)[C@H](CC(C)C)NC(=O)CNC(=O)CCC(=O)NCCCC[C@@H](C(=O)NCC(=O)NCC(=O)N[C@@H](Cc2ccc(O)cc2)C(=O)NCC(=O)N[C@@H](CCCNC(=N)N)C(=O)N[C@@H](CCCCN)C(=O)N[C@@H](CCCCN)C(=O)N[C@@H](CCCNC(=N)N)C(=O)N[C@@H](CCCNC(=N)N)C(=O)N[C@@H](CCC(N)=O)C(=O)N[C@@H](CCCNC(=N)N)C(=O)N[C@@H](CCCNC(=N)N)C(=O)N[C@@H](CCCNC(=N)N)C(N)=O)NC(=O)[C@H](CC(C)C)NC(=O)[C@H](CC(=O)O)NC(=O)[C@H](C(C)C)NC(=O)[C@H](CC(C)C)NC(=O)[C@H](C(C)C)NC1=O [CVP-199] (GLQRMVLVDLKGGYGRKKRRQRRR-NH2; linker N-11 via Suc),45,< 75,58.31 ± 0.02,,,,
Ac-GLQRMVLVDLKGGYGRKKRRQRRR-NH2 [CVP-198],~70,,130.47 ± 0.01,~95,1,0.74,
B1,,,,,,,139
